The series is described as follows: Animal biodistribution (in vivo, i.v. injection). Particulars: rats; for Blood, % injected dose/organ: blood taken as 5.8% of body weight; for Muscle, % injected dose/organ: muscle taken as 43% of body weight.

Description: 0.1 ml Tc^99m prep was injected i.v. into a lateral tail vein of 6 anaesthetised rats.
At 2 minutes and 60 minutes post injection, 3 rats were sacrificed by decapitation, bled from the neck and dissected. The following organs were removed at dissection: kidney, bladder(+urine), lung, liver, spleen, stomach, small intestine, large intestine, brain (weighed), heart (weighed), thyroid, and samples of blood (weighed) and muscle (weighed, the residual carcass and the tail (injection site). Subsequently samples were counted in an automatic twin crystal gamma counter.
Percentage biodistribution of injected material was calculated (after correction for background) for all organs using the formula: [formula]
Since only samples of muscle and blood were taken, the percentage in these tissues was calculated assuming blood and muscle to represent 5.8 and 43% of total animal weight respectively using the formula: [formula] where CF= 0.058 for blood

Take `O=[N][99Tc]([Cl])([Cl])[Cl].c1ccc(-c2ccccn2)nc1` [[^99 Tc(NO)Cl3 (Bipy)], bipyridyltrichloronitrosyltechnetium (11)]: under “2 min p.i.”, the “Brain, % injected dose/organ” value worked out at 0.06 % injected dose/organ; the “Heart, % injected dose/organ” value came out at 0.32 % injected dose/organ; the “Heart/Blood Counts/Gram ratio” value came out at 0.99; the “Heart/Liver Counts/Gram ratio” value worked out at 1.31. Where the note is “2 min p.i.”, the “Heart/Lung Counts/Gram ratio” value is on record as 1.30; the “Heart/Muscle Counts/Gram ratio” value was determined as 1.69; the “Kidney + Urine, % injected dose/organ” value is 11.30 % injected dose/organ; the “Liver + GI, % injected dose/organ” value is reported as 0.00 % injected dose/organ. For the setting “2 min p.i.”, the “Liver, % injected dose/organ” value is reported as 3.43 % injected dose/organ; the “Lung, % injected dose/organ” value stood at 0.45 % injected dose/organ; the “Blood, % injected dose/organ” value is reported as 7.17 % injected dose/organ; the “Muscle, % injected dose/organ” value is recorded as 24.17 % injected dose/organ. Where the note is “60 min p.i.”, the “Brain, % injected dose/organ” value was found to be 0.04 % injected dose/organ; the “Heart, % injected dose/organ” value is given as 0.30 % injected dose/organ; the “Heart/Blood Counts/Gram ratio” value came to 2.12; the “Heart/Liver Counts/Gram ratio” value is listed as 1.09. Where the note is “60 min p.i.”, the “Heart/Lung Counts/Gram ratio” value turned out to be 4.13; the “Heart/Muscle Counts/Gram ratio” value was found to be 2.02; the “Kidney + Urine, % injected dose/organ” value was found to be 22.96 % injected dose/organ; the “Liver + GI, % injected dose/organ” value worked out at 0.00 % injected dose/organ. Besides, for the setting “60 min p.i.”, the “Liver, % injected dose/organ” value is given as 3.35 % injected dose/organ; the “Lung, % injected dose/organ” value is recorded as 0.10 % injected dose/organ; the “Blood, % injected dose/organ” value is on record as 2.02 % injected dose/organ; the “Muscle, % injected dose/organ” value was 18.95 % injected dose/organ.
Take `O=[N][99Tc]1([Cl])([Cl])([Cl])[N]2C=CC=c3ccc4c(c32)[N]1C=CC=4` [[^99 Tc(NO)(1,10 phen)Cl3]°]: where the note is “2 min p.i.”, the “Brain, % injected dose/organ” value was found to be 0.08 % injected dose/organ; the “Heart, % injected dose/organ” value was determined as 0.40 % injected dose/organ; the “Heart/Blood Counts/Gram ratio” value is listed as 1.59; the “Heart/Liver Counts/Gram ratio” value is given as 35.14. Also, where the note is “2 min p.i.”, the “Heart/Lung Counts/Gram ratio” value worked out at 1.55; the “Heart/Muscle Counts/Gram ratio” value is 1.99; the “Kidney + Urine, % injected dose/organ” value came out at 1.97 % injected dose/organ; the “Liver, % injected dose/organ” value worked out at 0.16 % injected dose/organ. For the setting “2 min p.i.”, the “Lung, % injected dose/organ” value came to 0.67 % injected dose/organ; the “Blood, % injected dose/organ” value is 3.98 % injected dose/organ; the “Muscle, % injected dose/organ” value was found to be 22.83 % injected dose/organ. For the setting “60 min p.i.”, the “Brain, % injected dose/organ” value is on record as 0.04 % injected dose/organ; the “Heart, % injected dose/organ” value worked out at 0.29 % injected dose/organ; the “Heart/Blood Counts/Gram ratio” value is on record as 1.36; the “Heart/Liver Counts/Gram ratio” value stood at 10.63. For the same compound, for the setting “60 min p.i.”, the “Heart/Lung Counts/Gram ratio” value worked out at 2.57; the “Heart/Muscle Counts/Gram ratio” value is given as 4.68; the “Kidney + Urine, % injected dose/organ” value came out at 16.05 % injected dose/organ; the “Liver, % injected dose/organ” value is 0.46 % injected dose/organ. Under “60 min p.i.”, the “Lung, % injected dose/organ” value is on record as 0.23 % injected dose/organ; the “Blood, % injected dose/organ” value worked out at 3.49 % injected dose/organ; the “Muscle, % injected dose/organ” value is given as 17.02 % injected dose/organ.
`O=[N][Tc+][Cl].[C-]#[N+]C(C)(C)C.[C-]#[N+]C(C)(C)C.[C-]#[N+]C(C)(C)C.[C-]#[N+]C(C)(C)C` [[^99 Tc(NO)Cl(t-BuCN)4]^+]: where the note is “2 min p.i.”, the “Brain, % injected dose/organ” value turned out to be 0.04 % injected dose/organ; the “Heart, % injected dose/organ” value was found to be 1.09 % injected dose/organ; the “Heart/Blood Counts/Gram ratio” value was determined as 6.19; the “Heart/Liver Counts/Gram ratio” value was found to be 2.58. For the same compound, where the note is “2 min p.i.”, the “Heart/Lung Counts/Gram ratio” value came to 3.34; the “Kidney + Urine, % injected dose/organ” value was 6.86 % injected dose/organ; the “Liver, % injected dose/organ” value worked out at 5.82 % injected dose/organ; the “Lung, % injected dose/organ” value was found to be 0.64 % injected dose/organ. For the setting “2 min p.i.”, the “Blood, % injected dose/organ” value is reported as 0.40 % injected dose/organ and the “Muscle, % injected dose/organ” value was found to be 21.45 % injected dose/organ. In addition, for the setting “60 min p.i.”, the “Brain, % injected dose/organ” value was determined as 0.04 % injected dose/organ; the “Heart, % injected dose/organ” value was determined as 1.37 % injected dose/organ; the “Heart/Blood Counts/Gram ratio” value was found to be 8.98; the “Heart/Liver Counts/Gram ratio” value was 2.97. For the same compound, for the setting “60 min p.i.”, the “Heart/Lung Counts/Gram ratio” value worked out at 26.02; the “Kidney + Urine, % injected dose/organ” value was 8.15 % injected dose/organ; the “Liver, % injected dose/organ” value stood at 5.89 % injected dose/organ; the “Lung, % injected dose/organ” value stood at 0.12 % injected dose/organ. Moreover, the “Muscle, % injected dose/organ” value (60 min p.i.) is 18.30 % injected dose/organ.
For the compound `CP(C)CCP(C)C.CP(C)CCP(C)C.N#[O+].[99Tc+].[Cl-].[Cl-]`, for the setting “2 min p.i.”, the “Brain, % injected dose/organ” value is given as 0.04 % injected dose/organ; the “Heart, % injected dose/organ” value is on record as 0.46 % injected dose/organ; the “Heart/Blood Counts/Gram ratio” value is 0.68; the “Heart/Liver Counts/Gram ratio” value stood at 0.38. Besides, under “2 min p.i.”, the “Heart/Lung Counts/Gram ratio” value came to 0.71; the “Heart/Muscle Counts/Gram ratio” value was 1.85; the “Kidney + Urine, % injected dose/organ” value was determined as 10.18 % injected dose/organ; the “Liver + GI, % injected dose/organ” value is 26.33 % injected dose/organ. In addition, where the note is “2 min p.i.”, the “Liver, % injected dose/organ” value is reported as 15.03 % injected dose/organ; the “Lung, % injected dose/organ” value worked out at 1.09 % injected dose/organ; the “Blood, % injected dose/organ” value stood at 9.96 % injected dose/organ; the “Muscle, % injected dose/organ” value is recorded as 27.00 % injected dose/organ. Besides, for the setting “60 min p.i.”, the “Brain, % injected dose/organ” value is reported as 0.01 % injected dose/organ; the “Heart, % injected dose/organ” value was found to be 0.30 % injected dose/organ; the “Heart/Blood Counts/Gram ratio” value is 4.48; the “Heart/Liver Counts/Gram ratio” value is 1.13. For the same compound, where the note is “60 min p.i.”, the “Heart/Lung Counts/Gram ratio” value amounted to 1.53; the “Heart/Muscle Counts/Gram ratio” value is given as 2.34; the “Kidney + Urine, % injected dose/organ” value is 42.60 % injected dose/organ; the “Liver + GI, % injected dose/organ” value amounted to 34.70 % injected dose/organ. Where the note is “60 min p.i.”, the “Liver, % injected dose/organ” value is given as 3.14 % injected dose/organ; the “Lung, % injected dose/organ” value came to 0.33 % injected dose/organ; the “Blood, % injected dose/organ” value came to 1.02 % injected dose/organ; the “Muscle, % injected dose/organ” value was 14.10 % injected dose/organ.

The record behind these values is patent US5081232A, “Complexes of TC99m radiopharmaceuticals” (priority 1987, dated 1992).
